Source: US12364672B2, “Esketamine for use in treating major depressive disorder” (priority 2018, dated 2025)

Columns and labels:
[1] = test system: human peripheral blood lymphocytes (HPBL)
[2] = test system: human peripheral blood lymphocytes (HPBL); remark: listed apart in the source
Description: Toxicity (defined as ≥45% reduction in MI relative to the vehicle control) was evaluated at 9 concentrations, ranging from 0.0238 to 238 μg/ml, after exposure of HPBL to esketamine for 20 hours in the absence of S9 activation, or for 4 hours, either in the presence or absence of S9 activation, followed by a 16-hour recovery period.
The definitive chromosome aberration assay evaluated HPBL cells after exposure to esketamine for 20 hours in the absence of S9 activation, or for 4 hours, either in the presence of absence of S9 activation, followed by a 16-hour recovery. Positive controls for chromosomal aberrations in non-activated and S9-activated evaluations, respectively, consisted of mitomycin C (MMC, 0.6 and 0.3 μg/mL for the 4- and 20-hour exposures, respectively) and cyclophosphamide (CP, 2.5, 5, and 7.5 μg/mL). […] Initially, the doses selected for evaluation of chromosomal aberrations were 60, 120, and 238 μg/mL for the non-activated 4- and 20-hour treatment conditions; and 30, 60, and 200 μg/mL for the S9-activated 4-hour treatment condition.

[3] = test system: C57Bl/6 strain mice; experiment: Tail suspension test, single dose; format: in vivo, mouse; conditions: TST after 30 minutes
Description: Ketamine and esketamine HCl solutions at dose levels of 7.5, 15 and 30 mg/kg were administered intraperitoneally (ip) to groups of 10 inbred C57Bl/6 strain mice. After 30 minutes animals were exposed to the tail suspension test (TST).

[4] = test system: C57Bl/6 strain mice; experiment: Tail suspension test, 7-day administration; format: in vivo, mouse
Description: Esketamine HCl solutions were administered intraperitoneally (ip) to 8 groups of 10 inbred C57Bl/6 strain mice divided to receive one of the following dose levels for 7 days:
1. saline 10 ml/kg ip once prior to TST
2. esketamine 15 mg/kg ip once on day 7 prior to TST
3. esketamine 30 mg/kg ip once on day 7 prior to TST
4. saline 10 ml/kg ip daily for 7-days
5. esketamine 7.5 mg/kg ip daily for 7-days
6. esketamine 15 mg/kg ip daily for 7-days
7. esketamine 30 mg/kg ip once on day 1+saline daily for 6 more days
8. esketamine 30 mg/kg ip once on day 1+esketamine 7.5 mg/kg for 6 more days.
30 minutes after the last treatment, the animals were exposed to the tail suspension test (TST).

[5] = test system: healthy male and female subjects; experiment: Single dose crossover study in healthy volunteers, treatment-emergent adverse events; format: in vivo, human; conditions: all treatments
From the text: A total of 128 TEAEs (treatment-emergent adverse event) were reported by 15 of 16 (94%) subjects of which 79 TEAEs reported by 14 of 16 (88%) subjects were to be related to the study drug. Overall, a total of 14 of 128 TEAEs reported by 4 (25%) subjects were of moderate severity and 114 of 128 TEAEs reported by 15 (94%) subjects were of mild severity. […] The most frequently occurring adverse events (reported more than twice) were headache, dizziness, hypokinesia, feeling abnormal, fatigue, euphoric mood inappropriate affect, nausea and hyperhidrosis. Table 4 presents the frequency of the most frequently reported related TEAEs as a percentage of the subjects that experienced an adverse effect per treatment.

[6] = test system: liver of Crl:CD(SD) rats; experiment: In vivo single cell gel electrophoresis (comet) assay, liver; conditions: some male animals given 75 mg/kg/day

Row | SMILES | Toxicity (mitotic index) [1] | Toxicity (≥45% reduction in MI relative to the vehicle control) [2] | cytotoxicity (45% reduction in mitotic index relative to the vehicle control) ([2]; definitive assay, non-activated 4- and 20-hour treatment, any dose (30 to 238 μg/ml)) | reduction of immobility time from the saline control group ([3]; 7.5 mg/kg ip) | reduction of immobility time from the saline control group ([3]; 15 mg/kg ip) | reduction of immobility time from the saline control group ([3]; 30 mg/kg ip) | efficacy in the TST vs 7-day saline control group ([4]; 7.5 mg/kg ip daily for 7 days (Group 5)) | decrease in immobility time ([4]; 15 mg/kg ip daily for 7 days (Group 6), not statistically significant) | decrease in immobility time ([4]; 15 mg/kg ip once, acute (printed Group 3), p<0.007) | effect on time spent in immobility ([4]; 30 mg/kg ip once on day 1 + 7.5 mg/kg for 6 more days (Group 8) vs Group 7, p=0.02) | immobility time 7 days after a single injection ([4]; 30 mg/kg ip once on day 1 + saline for 6 more days (Group 7)) | severe TEAEs or SAEs [5] | liver histopathology [6]
1 | N[C@]1(c2ccccc2Cl)CCCCC1=O [(S)-norketamine, (2S)-2-(2-Chlorophenyl)-2-(amino) cyclohexanone] | not observed | – | – | – | – | – | – | – | – | – | – | – | –
2 | CN[C@]1(c2ccccc2Cl)CCCCC1=O [esketamine, (2S)-2-(2-Chlorophenyl)-2-(methylamino) cyclohexanone] | – | not observed | not observed | 27.0% | 43.6% | 58.1% | did not exert any efficacy | ~35% | 38.9% | 53.4% | no decline in immobility time | No severe TEAEs or SAEs | Increased hepatocellular mitotic figures
3 | CNC1(c2ccccc2Cl)CCCCC1=O (stereo not drawn) [ketamine, dl 2-(2-chlorophenyl)-2(methylamino) cyclohexanone] | – | – | – | – | – | 71.2% | – | – | – | – | – | – | –
